The source of these data is patent US11014896B2, “TRPA1 and TRPV4 inhibitors and methods of using the same for organ-specific inflammation and itch” (Duke University, priority 2014, dated 2021).

The structures appear in SMILES notation. “Also recorded” adds a separate entry of the source.

One data set concerns the target T1, human TRPV1 (Homo sapiens, UniProt Q8NER1).
T1 construct: expressed in transfected cells; host or cells: N2a cells
The data set can be described thus: Ca2+ signal in N2a cells transfected with human TRPV1. It counts as cell-based. The conditions noted are these: stimulation with 5 μM capsaicin. The method, then:
Compounds were tested for their effect on TRPV1, TRPV2, and TRPV3. Methods were similar to those described in Example 15. Briefly, N2a cells were transfected with human TRPV1, TRPV2, or TRPV3. eGFP-transfection was used as control. For specific stimulation of TRPV1, 5 μM capsaicin was used. For stimulation of TRPV2, hypotonicity (260 mosmol/L) was used, based on previous reports of TRPV2 being osmotically responsive. N2a cells were not responsive to hypotonicity, and neither were control-transfected cells. For TRPV3-expressing cells, camphor (20% of a commercially available stock solution) was used. […] Stimulation and control protocols were applied as for TRPA1-expressing N2a cells as detailed above in Example 15.

The test system of the next data set is ET1/Edn1. Description: Edn1 mRNA (qPCR) in UVB-exposed paw-pad epidermis after topical treatment. The conditions noted are these: 5 mM GSK205 topical; 2 hour and 24 hour time-points. It counts as in vivo, mouse. The method, then:
(§1) GSK205 topical treatment: A viscous solution of 68% EtOH/5% glycerol plus 1 mM or 5 mM GSK205 (none for control) was applied to hindpaws by rubbing in 20 μL, applied at time-points 1 hour and again 10 min before UV exposure.
Background: Quantitative PCR measures a nucleic acid by following its amplification.

A short description of data set [1]: UVB permeation of paw-pad skin (sunscreen test). The conditions noted are these: topically applied; GSK205 5 mM. On the set-up: species or system mouse. The method, then:
The UV LED was powered with 20 mA of current, resulting in 500 μW of optical power in a circular focal spot 1.5 mm in diameter, with 70% of the total flux in a 0.5 mm beam radius. The UV optical power transmitted through the sample was detected by a Hamamatsu 5127-66BR UV detector, and the output of the photodetector was measured using a Keithley 236 source measure unit. Next, the foot-pad epidermis of a mouse was measured for UV transmission by placing it on a quartz coverslip and exposure to the UV beam. The vehicle-control group was treated with the alcohol and glycerol solution only. Another control group consisted of a commercially-available SPF100 preparation sunscreen in form of a cream, which was applied similar to the vehicle-control. The data for the GSK205 and sunscreen was normalized to this control data.

A further data set concerns IL-6. The data set can be described thus: Keratinocyte IL-6 expression in UVB-exposed footpad after topical treatment. It counts as in vivo, mouse. The conditions noted are these: 5 mM GSK205 topical. The method, then: as §1
Routine procedures were followed as described previously (Chen et al., 2009). Mice were perfused transcardially with 30 mL PBS, followed by 30 mL 4% paraformaldehyde. Tissues, including the L5 DRGs (bilateral), and footpad preparations, were dissected and post-fixed in 4% paraformaldehyde. Tissue blocks were further cryoprotected in 30% sucrose in PBS for 24-48 hours. For mouse TRPV4, keratin-specific antibodies, phospho-ERK, IL-6, IL-1β, CXCL5 and caspase-1, tissue was prepared as frozen blocks and subsequently sectioned on a cryostat. For CD68, CD15 (neutrophil elastase) and CD3, mouse skin was prepared by 2% PFA perfusion. […]

Data set [2] deals with T2, TRPV4 (Mus musculus, UniProt Q9EPK8).
T2 construct: endogenous in cells; host or cells: primary mouse epidermal keratinocytes (1° MK), wild type
T2 sequence (Q9EPK8 whole entry): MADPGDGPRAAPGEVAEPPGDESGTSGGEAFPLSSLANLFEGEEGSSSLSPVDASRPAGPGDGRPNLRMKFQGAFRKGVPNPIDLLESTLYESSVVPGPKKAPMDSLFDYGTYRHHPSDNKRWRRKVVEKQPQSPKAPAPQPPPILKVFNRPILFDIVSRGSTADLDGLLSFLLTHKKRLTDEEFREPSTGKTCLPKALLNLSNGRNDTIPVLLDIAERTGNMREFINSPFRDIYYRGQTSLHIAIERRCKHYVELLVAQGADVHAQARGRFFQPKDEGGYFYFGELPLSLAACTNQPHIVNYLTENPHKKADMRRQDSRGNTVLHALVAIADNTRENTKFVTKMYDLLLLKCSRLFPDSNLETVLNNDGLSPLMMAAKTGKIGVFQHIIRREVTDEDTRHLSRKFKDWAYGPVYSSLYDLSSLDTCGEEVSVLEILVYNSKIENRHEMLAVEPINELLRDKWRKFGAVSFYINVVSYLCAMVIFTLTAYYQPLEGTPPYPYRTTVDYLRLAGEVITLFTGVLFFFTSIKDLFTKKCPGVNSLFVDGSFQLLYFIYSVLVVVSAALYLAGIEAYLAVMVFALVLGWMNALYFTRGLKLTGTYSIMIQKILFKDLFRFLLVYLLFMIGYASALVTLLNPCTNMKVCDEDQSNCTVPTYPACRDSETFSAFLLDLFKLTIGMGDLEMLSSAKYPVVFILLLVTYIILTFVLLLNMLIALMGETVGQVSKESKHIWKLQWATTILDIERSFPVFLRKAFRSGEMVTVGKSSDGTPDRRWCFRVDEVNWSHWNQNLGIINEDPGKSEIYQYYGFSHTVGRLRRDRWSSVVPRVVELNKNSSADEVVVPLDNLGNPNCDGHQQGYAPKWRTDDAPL
Description: GSK101-evoked Ca++ transient in 1° MK. The data set is classed as cell-based. The conditions noted are these: 5 nM GSK101; GSK205 20 μM. The method, then: Ca++ imaging of mouse 1° MK in response to chemical activation of TRPV4 was conducted after loading with 2 μM fura2-AM, following a ratiometric Ca2+ imaging protocol with 340/380 nm […] for dual excitation. Ratios of emissions were acquired at 0.5 Hz. ΔR/R0 was determined as the fraction of the increase of a given ratio over baseline ratio, divided by baseline ratio. For stimulation of cells with UVB, where fura-2 was not suitable because of the proximity of stimulation with 340/380 nm and 295 nm, 2 μM fluo4-AM was used instead. Ca++ imaging was carried out at 488 nm excitation, acquisition of emissions at 0.5 Hz, expressed as ΔF/F0. In the custom-built UV optical system, UV LEDs were capped with a ball lens, a transparent optical window in the shape of a hemispherical lens (FIG. 2B). The LED output optical beam focused at 15-20 mm from the lens, with a spot diameter of approximately 1.5-2.0 mm (FIG. 2C). […] The thermal equilibration stage was set for physiological temperature. We confirmed the non-thermal nature of UVB stimulation using the customized 295 nm LED device in a dedicated experiment (FIG. 2D), thus confirming the specific modality of stimulation as UVB.

Data set [3] deals with TRPV4 (Homo sapiens, UniProt Q9HBA0). Description: UVB-evoked Ca++ transient in TRPV4-transfected HEK293T cells. It counts as cell-based. On the set-up: expressed in transfected cells; host or cells: HEK293T cells. The conditions noted are these: pre-exposure to 20 μM GSK205.
Chain of TRPV4 (Homo sapiens, UniProt Q9HBA0) (Q9HBA0 whole entry, species assumed): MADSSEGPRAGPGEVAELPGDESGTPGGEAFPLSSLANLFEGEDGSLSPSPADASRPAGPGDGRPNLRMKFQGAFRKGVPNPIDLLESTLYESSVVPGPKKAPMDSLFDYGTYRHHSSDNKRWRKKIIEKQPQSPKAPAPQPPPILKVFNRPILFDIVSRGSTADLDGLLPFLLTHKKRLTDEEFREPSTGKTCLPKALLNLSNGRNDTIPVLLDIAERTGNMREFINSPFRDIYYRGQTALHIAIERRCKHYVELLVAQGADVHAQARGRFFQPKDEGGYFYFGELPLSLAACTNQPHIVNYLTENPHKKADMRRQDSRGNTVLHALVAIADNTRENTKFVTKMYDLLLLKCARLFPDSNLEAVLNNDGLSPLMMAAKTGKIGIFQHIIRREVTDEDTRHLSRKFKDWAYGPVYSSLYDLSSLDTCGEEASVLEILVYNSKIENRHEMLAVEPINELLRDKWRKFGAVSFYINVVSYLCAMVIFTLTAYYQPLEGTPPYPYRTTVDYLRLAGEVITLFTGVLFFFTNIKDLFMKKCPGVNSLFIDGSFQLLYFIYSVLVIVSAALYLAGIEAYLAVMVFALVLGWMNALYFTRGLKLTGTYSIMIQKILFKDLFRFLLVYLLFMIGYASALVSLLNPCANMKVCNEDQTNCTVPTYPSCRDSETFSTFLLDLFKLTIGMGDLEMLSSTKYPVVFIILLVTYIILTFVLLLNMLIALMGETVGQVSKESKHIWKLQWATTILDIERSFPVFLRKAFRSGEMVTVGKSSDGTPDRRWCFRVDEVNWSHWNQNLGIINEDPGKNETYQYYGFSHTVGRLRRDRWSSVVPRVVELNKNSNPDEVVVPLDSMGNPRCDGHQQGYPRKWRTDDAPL

T1 sequence (Q8NER1 whole entry): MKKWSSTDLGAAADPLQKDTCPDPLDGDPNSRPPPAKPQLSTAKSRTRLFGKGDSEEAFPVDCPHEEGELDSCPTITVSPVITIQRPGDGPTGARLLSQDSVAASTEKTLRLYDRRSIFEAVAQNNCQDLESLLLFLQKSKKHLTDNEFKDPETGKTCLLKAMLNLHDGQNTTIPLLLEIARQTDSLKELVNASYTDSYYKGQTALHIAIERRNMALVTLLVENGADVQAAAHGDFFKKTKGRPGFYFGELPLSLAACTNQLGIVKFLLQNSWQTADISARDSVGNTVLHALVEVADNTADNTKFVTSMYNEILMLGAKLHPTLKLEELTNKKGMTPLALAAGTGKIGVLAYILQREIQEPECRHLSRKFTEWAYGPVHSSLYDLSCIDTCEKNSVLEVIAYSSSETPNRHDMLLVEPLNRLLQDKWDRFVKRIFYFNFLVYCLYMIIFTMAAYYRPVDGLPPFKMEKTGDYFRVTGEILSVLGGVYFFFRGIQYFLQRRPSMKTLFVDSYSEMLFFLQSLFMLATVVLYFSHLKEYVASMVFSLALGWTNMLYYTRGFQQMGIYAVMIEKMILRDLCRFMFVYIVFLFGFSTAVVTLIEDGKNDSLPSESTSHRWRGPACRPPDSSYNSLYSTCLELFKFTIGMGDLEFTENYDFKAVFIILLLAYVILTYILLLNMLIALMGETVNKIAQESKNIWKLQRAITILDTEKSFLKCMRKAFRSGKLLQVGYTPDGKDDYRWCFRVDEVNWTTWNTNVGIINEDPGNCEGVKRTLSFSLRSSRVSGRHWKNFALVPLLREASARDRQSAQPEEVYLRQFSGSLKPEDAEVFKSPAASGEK

As for `CN(CCc1ccc(Nc2nc(-c3ccccc3)cs2)cc1)Cc1ccccc1` [Compound 16-8], the “Ca2+ transience on TRPV1 stimulation” value at human TRPV1 is listed as “not affected”.
Regarding `CN(CCc1ccc(Nc2nc(-c3cccnc3)cs2)cc1)Cc1ccccc1` [GSK205], in the data set on ET1/Edn1, the “Edn1 mRNA expression after UVB” value is “unchanged; also recorded: complete lack of this regulation”. In data set [1], the “UVB permeation of paw-pad skin vs. vehicle control” value is “equal UVB permeation; also recorded: absence of a change”. For the same compound, the “keratinocyte expression of IL-6 in UVB-exposed footpad” value in the data set on IL-6 is on record as “Comparably significant blocks; also recorded: attenuates keratinocyte expression of IL-6”. For the same compound, on TRPV4 [2], the “GSK101-evoked Ca++ transient” value is given as “eliminated; also recorded: completely blocked”. The “UVB-evoked Ca++ signal in TRPV4-transfected HEK293T cells” value at TRPV4 [3] is “blocked; also recorded: virtually eliminates”.
